Patent publication US10485902B2, “Antibiotic drug release sheath” (Thomas Jefferson University, priority 2015, dated 2019)
Read-outs that look alike come from different tables or passages of the source. Values belong to the molecule of their own block, whether it stands above or below them.

Experiments:
[1] = test system: osteoblastic (MC3T3-E1) and chondrocytic (N1511) cells; conditions: cited from earlier work
[2] = VAN release from PLA-sealed sheaths in spinal levels of a cadaverous rabbit; conditions: 4 mg VAN-loaded PLA-sealed sheaths; 20 min, 5 MHz, 3 MPa pk-pk; US parameters not optimized
Procedure: (§1) The first set of experiments uses rabbit carcasses to establish US parameters that reproducibly release the desired amounts of ABX within a mock spinal fusion site. Preliminary tests on such animals in which VAN-loaded (4 mg), PLA-sealed sheaths were placed in 4 spinal levels of a cadaverous rabbit. Site 1 and Site 3 were inoculated with 10^4 CFU S. aureus in 100 μL PBS, and Site 2 and 4 were encased in plastic to collect released VAN. Without any optimization of US parameters, ˜50% of the VAN was released by insonation (20 min, 5 MHz, 3 MPapk-pk) and caused ˜10× less bacterial colonization.

[3] = test system: S. aureus; test: Bacterial colonization of inoculated spinal sites in a cadaverous rabbit; conditions: sites inoculated with 10^4 CFU S. aureus; insonation 20 min, 5 MHz, 3 MPa pk-pk
Procedure: as §1

[4] = test system: bacterial lawn; test: Passive elution of VAN from allograft bone and bacterial killing (FIG. 6); conditions: initial loading 10 mg/ml VAN
Procedure: Antibacterial activity of bone allografts: comparison of a new vancomycin-tethered allograft with allograft loaded with adsorbed vancomycin. This is an example of the elution that can be achieved without enhancement by ultrasound.
(initial loading: 10 mg/ml VAN, FIG. 6). However, a preferred sheath is sealed so that it retains antibiotics without leakage for up to 7 days (to allow for triggered release at any time prior to patient discharge) and then releases >99% of the antibiotics within 24 hrs. of US insonation. Accordingly, release can be determined based on the specific needs of the patient. Therapeutic materials loaded into the sheath may be liquids, solids, gels, or combinations thereof. Release profile of these different materials may require different structures to allow for the appropriate release.

[5] = test system: bacteria; conditions: US plus VAN; cited from earlier work
[6] = US release of VAN from porous PLA-sealed PEEK block; assay type: physicochemical; conditions: 10 mg VAN loaded; 10 min US insonation (5 MHz, 4 MPa)
Procedure: During the first 15 min of immersion, 11 mg and 3 mg of drug were released (due to surface amounts in PLA) from the groups. […] […] (4) Three PLA coatings for US rupture using highly porous PEEK.

[7] = test system: S. aureus; conditions: cited from earlier work
[8] = US-mediated methylene blue release from PLA-sealed multiport (1 mm) PEEK sheath; assay type: physicochemical
Procedure: Multiple 1 mm holes (left) and one 3 mm hole (right) sheaths were submerged in water and release of methylene blue (MeB) or MeB+VAN was measured spectrophotometrically.
During the first 15 min of immersion, 11 mg and 3 mg of drug were released (due to surface amounts in PLA) from the groups. […] With a 15 min insonation (5 MHz, 3 MPa), 15 mg was released within one hour and the remaining 24 mg of drug was released by 72 hrs^39. (4) Three PLA coatings for US rupture using highly porous PEEK.

SMILES: NC[C@H]1O[C@H](O[C@H]2[C@H](O)[C@@H](O[C@H]3O[C@H](CO)[C@@H](O)[C@H](N)[C@H]3O)[C@H](N)C[C@@H]2N)[C@H](N)C[C@@H]1O [TOB, tobramycin]
concentration at which toxicity / cell death initiates [1]: ~0.5 mg/mL

SMILES: CN[C@H](CC(C)C)C(=O)N[C@H]1C(=O)N[C@@H](CC(N)=O)C(=O)N[C@H]2C(=O)N[C@H]3C(=O)N[C@H](C(=O)N[C@H](C(=O)O)c4cc(O)cc(O)c4-c4cc3ccc4O)[C@H](O)c3ccc(c(Cl)c3)Oc3cc2cc(c3O[C@@H]2O[C@H](CO)[C@@H](O)[C@H](O)[C@H]2O[C@H]2C[C@](C)(N)[C@H](O)[C@H](C)O2)Oc2ccc(cc2Cl)[C@H]1O [VAN, vancomycin]
VAN released by insonation [2]: ~50% | concentration at which toxicity / cell death initiates ([1]; MC3T3-E1 and N1511 cells): above 1 mg/ml | toxicity in words ([1]; MC3T3-E1 and N1511 cells): low toxicity | less bacterial colonization [3]: ~10 × | bacterial killing ([4]; especially within the first 48 hr.): significant bacterial killing | elution from allograft bone ([4]; no ultrasound): rapid passive elution | further decrease of bacterial numbers by US in the presence of VAN [5]: 50-90% | released VAN after US insonation [6]: 7.5 mg | bacterial levels on metal surface versus 0 and 4 ug/ml VAN ([7]; 100 ug/ml of VAN (FIG. 2C)): massive reduction in bacterial levels | reduction of bacterial colonization ([7]; 1 hr., 100× MIC): many-fold

SMILES: O=C(O)c1cn(C2CC2)c2cc(N3CCNCC3)c(F)cc2c1=O [CIP, ciprofloxacin]
concentration at which toxicity / cell death initiates [1]: 0.15 to 0.2 mg/mL

increase in MeB release, US group ([8]; US insonated, over 8 days): 757% | increase in MeB release, non-insonated controls ([8]; no US, at 2 days): 26% | additional MeB release, non-insonated controls ([8]; no US, out to 6 days): no additional release
SMILES: CN(C)c1ccc2nc3ccc(=[N+](C)C)cc-3sc2c1 [MeB, methylene blue]
